Measured values as given in PubChem BioAssay (NCI).
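Step 1: Grow cells in 96-well plates. Step 2: Expose to compound for 48 hours at 5 concentrations. Step 3: Interpolate endpoints linearly; if unreached, use highest concentration. GI50 = concentration required for 50% inhibition of growth. TGI: total growth inhibition.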

What was measured:
Assay in all cases: NCI anticancer screen, dose series, 48 h
NCI/ADR-RES ovarian = test system: NCI/ADR-RES ovarian
EKVX NSCLC = test system: EKVX NSCLC
LOX IMVI melanoma = test system: LOX IMVI melanoma
SNB-75 CNS = test system: SNB-75 CNS
HL-60(TB) leukemia = test system: HL-60(TB) leukemia
SNB-19 CNS = test system: SNB-19 CNS
KM12 colon = test system: KM12 colon
MCF7 breast = test system: MCF7 breast
A498 renal = test system: A498 renal
SK-MEL-2 melanoma = test system: SK-MEL-2 melanoma
SF-268 CNS = test system: SF-268 CNS
IGROV1 ovarian = test system: IGROV1 ovarian
DU-145 prostate = test system: DU-145 prostate
UO-31 renal = test system: UO-31 renal
HCC-2998 colon = test system: HCC-2998 colon
NCI-H226 lung = test system: NCI-H226 lung
MDA-MB-231 breast = test system: MDA-MB-231 breast
UACC-257 melanoma = test system: UACC-257 melanoma
TK-10 renal = test system: TK-10 renal
UACC-62 melanoma = test system: UACC-62 melanoma
HOP-92 NSCLC = test system: HOP-92 NSCLC
786-0 renal = test system: 786-0 renal
CCRF-CEM leukemia = test system: CCRF-CEM leukemia
HCT-116 colon = test system: HCT-116 colon
HT29 colon = test system: HT29 colon
NCI-H522 lung = test system: NCI-H522 lung
SF-295 CNS = test system: SF-295 CNS
MDA-MB-435 = test system: MDA-MB-435
SK-MEL-28 melanoma = test system: SK-MEL-28 melanoma
RXF 393 renal = test system: RXF 393 renal
CAKI-1 renal = test system: CAKI-1 renal
BT-549 breast = test system: BT-549 breast
MOLT-4 leukemia = test system: MOLT-4 leukemia
T-47D breast = test system: T-47D breast
RPMI-8226 leukemia = test system: RPMI-8226 leukemia
SN12C renal = test system: SN12C renal
K-562 leukemia = test system: K-562 leukemia
NCI-H23 lung = test system: NCI-H23 lung
SK-OV-3 ovarian = test system: SK-OV-3 ovarian
OVCAR-5 ovarian = test system: OVCAR-5 ovarian
HCT-15 colon = test system: HCT-15 colon
HS 578T breast = test system: HS 578T breast
SW-620 colon = test system: SW-620 colon
MALME-3M melanoma = test system: MALME-3M melanoma
SK-MEL-5 melanoma = test system: SK-MEL-5 melanoma
OVCAR-4 ovarian = test system: OVCAR-4 ovarian
HOP-62 NSCLC = test system: HOP-62 NSCLC
NCI-H460 lung = test system: NCI-H460 lung
U251 CNS = test system: U251 CNS
OVCAR-8 ovarian = test system: OVCAR-8 ovarian
SR leukemia = test system: SR leukemia
PC-3 prostate = test system: PC-3 prostate
M14 melanoma = test system: M14 melanoma
SF-539 CNS = test system: SF-539 CNS
COLO 205 colon = test system: COLO 205 colon
A549 NSCLC = test system: A549 NSCLC
ACHN renal = test system: ACHN renal

COc1ccccc1/C=C/C=N/NC1=NC2C(S1)N(C)C(=O)N2c1ccccc1 (centres undefined)
GI50 (NCI/ADR-RES ovarian): 359 nM
TGI (NCI/ADR-RES ovarian): > 100000 nM
GI50 (EKVX NSCLC): 729 nM
TGI (EKVX NSCLC): > 100000 nM
GI50 (LOX IMVI melanoma): 458 nM
TGI (LOX IMVI melanoma): 12500 nM
GI50 (SNB-75 CNS): 419 nM
TGI (SNB-75 CNS): > 53100 nM
GI50 (HL-60(TB) leukemia): 294 nM
TGI (HL-60(TB) leukemia): > 31900 nM
GI50 (SNB-19 CNS): 455 nM
TGI (SNB-19 CNS): > 93400 nM
GI50 (KM12 colon): 400 nM
TGI (KM12 colon): > 37100 nM
GI50 (MCF7 breast): 385 nM
TGI (MCF7 breast): > 100000 nM
GI50 (A498 renal): 251 nM
TGI (A498 renal): 730 nM
GI50 (SK-MEL-2 melanoma): 449 nM
TGI (SK-MEL-2 melanoma): 15300 nM
GI50 (SF-268 CNS): 1690 nM
TGI (SF-268 CNS): 37200 nM
GI50 (IGROV1 ovarian): 601 nM
TGI (IGROV1 ovarian): 26300 nM
GI50 (DU-145 prostate): 471 nM
TGI (DU-145 prostate): > 100000 nM
GI50 (UO-31 renal): 799 nM
TGI (UO-31 renal): > 55600 nM
GI50 (HCC-2998 colon): 377 nM
TGI (HCC-2998 colon): 11600 nM
GI50 (NCI-H226 lung): 572 nM
TGI (NCI-H226 lung): > 47900 nM
GI50 (MDA-MB-231 breast): 588 nM
TGI (MDA-MB-231 breast): 20900 nM
GI50 (UACC-257 melanoma): 2180 nM
TGI (UACC-257 melanoma): 34500 nM
GI50 (TK-10 renal): 11400 nM
TGI (TK-10 renal): > 70900 nM
GI50 (UACC-62 melanoma): 456 nM
TGI (UACC-62 melanoma): 37000 nM
GI50 (HOP-92 NSCLC): 202 nM
TGI (HOP-92 NSCLC): 1280 nM
GI50 (786-0 renal): 642 nM
TGI (786-0 renal): 13800 nM
GI50 (CCRF-CEM leukemia): 408 nM
TGI (CCRF-CEM leukemia): > 78800 nM
GI50 (HCT-116 colon): 353 nM
TGI (HCT-116 colon): 5190 nM
GI50 (HT29 colon): 332 nM
TGI (HT29 colon): 1490 nM
GI50 (NCI-H522 lung): 210 nM
TGI (NCI-H522 lung): 575 nM
GI50 (SF-295 CNS): 336 nM
TGI (SF-295 CNS): 99200 nM
GI50 (MDA-MB-435): 250 nM
TGI (MDA-MB-435): 636 nM
GI50 (SK-MEL-28 melanoma): 11800 nM
TGI (SK-MEL-28 melanoma): 42200 nM
GI50 (RXF 393 renal): 312 nM
TGI (RXF 393 renal): 3360 nM
GI50 (CAKI-1 renal): 562 nM
TGI (CAKI-1 renal): 37800 nM
GI50 (BT-549 breast): 264 nM
TGI (BT-549 breast): 653 nM
GI50 (MOLT-4 leukemia): 404 nM
TGI (MOLT-4 leukemia): > 100000 nM
GI50 (T-47D breast): 4040 nM
TGI (T-47D breast): > 79300 nM
GI50 (RPMI-8226 leukemia): 396 nM
TGI (RPMI-8226 leukemia): 11200 nM
GI50 (SN12C renal): 617 nM
TGI (SN12C renal): 29000 nM
GI50 (K-562 leukemia): 383 nM
TGI (K-562 leukemia): > 100000 nM
GI50 (NCI-H23 lung): 474 nM
TGI (NCI-H23 lung): > 100000 nM
GI50 (SK-OV-3 ovarian): 510 nM
TGI (SK-OV-3 ovarian): > 44800 nM
GI50 (OVCAR-5 ovarian): 690 nM
TGI (OVCAR-5 ovarian): > 100000 nM
GI50 (HCT-15 colon): 371 nM
TGI (HCT-15 colon): 23100 nM
GI50 (HS 578T breast): 356 nM
TGI (HS 578T breast): 25500 nM
GI50 (SW-620 colon): 403 nM
TGI (SW-620 colon): 18900 nM
GI50 (MALME-3M melanoma): 2680 nM
TGI (MALME-3M melanoma): 29000 nM
GI50 (SK-MEL-5 melanoma): 545 nM
TGI (SK-MEL-5 melanoma): 5270 nM
GI50 (OVCAR-4 ovarian): 5230 nM
TGI (OVCAR-4 ovarian): > 100000 nM
GI50 (HOP-62 NSCLC): 573 nM
TGI (HOP-62 NSCLC): 24700 nM
GI50 (NCI-H460 lung): 349 nM
TGI (NCI-H460 lung): 11000 nM
GI50 (U251 CNS): 387 nM
TGI (U251 CNS): 6280 nM
GI50 (OVCAR-8 ovarian): 357 nM
TGI (OVCAR-8 ovarian): 2230 nM
GI50 (SR leukemia): 343 nM
TGI (SR leukemia): > 46800 nM
GI50 (PC-3 prostate): 435 nM
TGI (PC-3 prostate): 19600 nM
GI50 (M14 melanoma): 333 nM
TGI (M14 melanoma): 2340 nM
GI50 (SF-539 CNS): 292 nM
TGI (SF-539 CNS): 867 nM
GI50 (COLO 205 colon): 230 nM
TGI (COLO 205 colon): 487 nM
GI50 (A549 NSCLC): 485 nM
TGI (A549 NSCLC): > 100000 nM
GI50 (ACHN renal): 692 nM
TGI (ACHN renal): > 48400 nM
